How the values were obtained:
[1] = test system: Mus musculus; experiment: Neurotoxicity in conscious mouse assessed as effect on behavior at 100 mg/kg after 5 hrs; assay type: toxicity, organism-based; parameters: dose 100 mg/kg; conditions: in vivo
[2] = test system: Canis familiaris; experiment: Cardiotoxicity in anesthetized dog assessed as effect on QTc interval at 1 mg/kg, iv; assay type: toxicity, organism-based, Canis lupus familiaris; parameters: dose 1 mg/kg, route intravenous; conditions: in vivo
[3] = Half life in dog at 0.5 mg/kg, iv and 2 mg/kg, po; assay type: ADME, organism-based, Canis lupus familiaris; conditions: in vivo
[4] = test system: Plasma; experiment: Plasma concentration in dog at 1 mg/kg, iv; assay type: ADME, organism-based, Canis lupus familiaris; parameters: dose 1 mg/kg, route intravenous; conditions: in vivo
[5] = test system: Canis familiaris; experiment: Cardiotoxicity in anesthetized dog assessed as increase in PR interval at 10 mg/kg, iv; assay type: toxicity, organism-based, Canis lupus familiaris; parameters: dose 10 mg/kg, route intravenous; conditions: in vivo
[6] = AUC in dog at 60 mg/kg, po; assay type: ADME, organism-based, Canis lupus familiaris; parameters: dose 60 mg/kg, route oral; conditions: plasma
[7] = test system: Canis familiaris; experiment: Cardiotoxicity in anesthetized dog assessed as effect on heart rate at 1 mg/kg, iv; assay type: toxicity, organism-based, Canis lupus familiaris; parameters: dose 1 mg/kg, route intravenous; conditions: in vivo
[8] = test system: Mus musculus; experiment: Neurotoxicity in conscious mouse assessed as effect on CNS function at 100 mg/kg after 24 hrs; assay type: toxicity, organism-based, Central nervous system; parameters: dose 100 mg/kg; conditions: in vivo
[9] = test system: Canis familiaris; experiment: Cardiotoxicity in anesthetized dog assessed as effect on QRS interval at 10 mg/kg, iv; assay type: toxicity, organism-based, Canis lupus familiaris; parameters: dose 10 mg/kg, route intravenous; conditions: in vivo
[10] = target: hERG (KCNH2) (Homo sapiens, UniProt Q12809); experiment: Inhibition of human ERG at 30 uM by electrophysiology assay
[11] = test system: Canis familiaris; experiment: Cardiotoxicity in anesthetized dog assessed as effect on QTc interval at 10 mg/kg, iv; assay type: toxicity, organism-based, Canis lupus familiaris; parameters: dose 10 mg/kg, route intravenous; conditions: in vivo
[12] = test system: Rattus norvegicus; experiment: Antiallodynic activity in rat spinal nerve ligation model of neuropathic pain assessed as reversal of allodynia at 3 mg/kg, po after 4 hrs; assay type: functional
[13] = target: Sodium channel protein type 5 subunit alpha (Homo sapiens, UniProt Q14524); experiment: Inhibition of Nav1.5 by VIPR assay
[14] = test system: Rattus norvegicus; experiment: Clearance in rat plasma at 1 mg/kg, iv and 3 mg/kg, po; assay type: ADME, organism-based; conditions: in vivo
[15] = Metabolic stability in dog liver microsomes assessed as compound remaining after 60 mins in presence of 10 uM substrate; assay type: ADME, Canis lupus familiaris, Microsome; conditions: read-out: Stability
[16] = test system: Rattus norvegicus; experiment: Antiallodynic activity in rat spinal nerve ligation model of neuropathic pain assessed as reversal of allodynia at 10 mg/kg, po after 2 hrs; assay type: functional; conditions: Rattus norvegicus, Spinal nerve, 2 h
[17] = Bioavailability in dog at 0.5 mg/kg, iv and 2 mg/kg, po; assay type: ADME, organism-based, Canis lupus familiaris; conditions: in vivo
[18] = test system: Rattus norvegicus; experiment: Antiallodynic activity in rat spinal nerve ligation model of neuropathic pain assessed as reversal of allodynia at 30 mg/kg, po after 2 hrs; assay type: functional
[19] = Metabolic stability in human liver microsomes assessed as compound remaining after 60 mins in presence of 10 uM substrate; assay type: ADME, Microsome; conditions: read-out: Stability
[20] = Cmax in dog at 0.5 mg/kg, iv and 2 mg/kg, po; assay type: ADME, organism-based, Canis lupus familiaris; conditions: in vivo
[21] = test system: Canis familiaris; experiment: Cardiotoxicity in anesthetized dog assessed as effect on QRS interval at 1 mg/kg, iv; assay type: toxicity, organism-based, Canis lupus familiaris; parameters: dose 1 mg/kg, route intravenous; conditions: in vivo
[22] = target: Cytochrome P450 2D6 (Homo sapiens, UniProt P10635); experiment: Inhibition of CYP2D6; assay type: ADME
Cytochrome P450 2D6, sequence (P10635 whole entry): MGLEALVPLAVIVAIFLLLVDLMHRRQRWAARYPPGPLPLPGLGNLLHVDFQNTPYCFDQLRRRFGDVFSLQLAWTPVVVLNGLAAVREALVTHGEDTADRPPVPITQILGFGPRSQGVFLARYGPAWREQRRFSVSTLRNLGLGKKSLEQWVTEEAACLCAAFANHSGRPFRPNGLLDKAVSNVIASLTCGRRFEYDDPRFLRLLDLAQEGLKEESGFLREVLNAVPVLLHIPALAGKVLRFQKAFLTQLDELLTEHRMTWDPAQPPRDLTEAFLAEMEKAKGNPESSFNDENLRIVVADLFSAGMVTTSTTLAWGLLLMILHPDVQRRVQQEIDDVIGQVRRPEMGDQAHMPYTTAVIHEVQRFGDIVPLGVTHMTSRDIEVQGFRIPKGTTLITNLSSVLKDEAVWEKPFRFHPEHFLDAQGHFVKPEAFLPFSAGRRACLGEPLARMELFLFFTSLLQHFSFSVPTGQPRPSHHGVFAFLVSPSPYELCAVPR

[23] = target: Cytochrome P450 2C9 (Homo sapiens, UniProt P11712); experiment: Inhibition of CYP2C9; assay type: ADME
Cytochrome P450 2C9, sequence (P11712 whole entry): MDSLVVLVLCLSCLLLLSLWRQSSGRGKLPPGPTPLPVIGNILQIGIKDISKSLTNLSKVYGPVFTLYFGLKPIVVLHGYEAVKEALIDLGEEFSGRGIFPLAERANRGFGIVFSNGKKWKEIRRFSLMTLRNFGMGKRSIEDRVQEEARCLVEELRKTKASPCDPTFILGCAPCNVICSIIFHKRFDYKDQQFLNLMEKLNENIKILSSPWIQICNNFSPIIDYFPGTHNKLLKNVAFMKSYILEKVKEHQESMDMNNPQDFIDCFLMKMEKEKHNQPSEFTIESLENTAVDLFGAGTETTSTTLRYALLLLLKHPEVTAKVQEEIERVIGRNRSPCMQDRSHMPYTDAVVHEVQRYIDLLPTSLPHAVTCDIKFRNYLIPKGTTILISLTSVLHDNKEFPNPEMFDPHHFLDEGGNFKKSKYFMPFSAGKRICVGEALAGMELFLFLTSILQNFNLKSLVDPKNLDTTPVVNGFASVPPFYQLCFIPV

[24] = target: T1, Nuclear receptor subfamily 1 group I member 2 (Homo sapiens, UniProt O75469); experiment: Induction of PXR
T1 sequence (O75469 whole entry): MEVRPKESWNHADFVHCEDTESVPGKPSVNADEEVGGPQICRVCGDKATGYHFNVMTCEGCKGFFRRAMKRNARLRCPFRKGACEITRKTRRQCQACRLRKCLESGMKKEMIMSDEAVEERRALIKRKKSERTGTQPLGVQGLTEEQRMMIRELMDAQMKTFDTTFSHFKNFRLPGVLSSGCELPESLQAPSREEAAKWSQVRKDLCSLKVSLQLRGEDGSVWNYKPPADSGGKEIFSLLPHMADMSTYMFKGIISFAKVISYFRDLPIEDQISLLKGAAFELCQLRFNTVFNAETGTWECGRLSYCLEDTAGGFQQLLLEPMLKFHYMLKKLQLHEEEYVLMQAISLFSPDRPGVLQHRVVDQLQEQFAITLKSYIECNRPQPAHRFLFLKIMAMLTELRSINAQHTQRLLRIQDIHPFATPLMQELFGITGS

[25] = target: Sodium channel protein type 9 subunit alpha (Homo sapiens, UniProt Q15858); experiment: Inhibition of human Nav1.7 by VIPR assay
Sodium channel protein type 9 subunit alpha, sequence (Q15858 whole entry): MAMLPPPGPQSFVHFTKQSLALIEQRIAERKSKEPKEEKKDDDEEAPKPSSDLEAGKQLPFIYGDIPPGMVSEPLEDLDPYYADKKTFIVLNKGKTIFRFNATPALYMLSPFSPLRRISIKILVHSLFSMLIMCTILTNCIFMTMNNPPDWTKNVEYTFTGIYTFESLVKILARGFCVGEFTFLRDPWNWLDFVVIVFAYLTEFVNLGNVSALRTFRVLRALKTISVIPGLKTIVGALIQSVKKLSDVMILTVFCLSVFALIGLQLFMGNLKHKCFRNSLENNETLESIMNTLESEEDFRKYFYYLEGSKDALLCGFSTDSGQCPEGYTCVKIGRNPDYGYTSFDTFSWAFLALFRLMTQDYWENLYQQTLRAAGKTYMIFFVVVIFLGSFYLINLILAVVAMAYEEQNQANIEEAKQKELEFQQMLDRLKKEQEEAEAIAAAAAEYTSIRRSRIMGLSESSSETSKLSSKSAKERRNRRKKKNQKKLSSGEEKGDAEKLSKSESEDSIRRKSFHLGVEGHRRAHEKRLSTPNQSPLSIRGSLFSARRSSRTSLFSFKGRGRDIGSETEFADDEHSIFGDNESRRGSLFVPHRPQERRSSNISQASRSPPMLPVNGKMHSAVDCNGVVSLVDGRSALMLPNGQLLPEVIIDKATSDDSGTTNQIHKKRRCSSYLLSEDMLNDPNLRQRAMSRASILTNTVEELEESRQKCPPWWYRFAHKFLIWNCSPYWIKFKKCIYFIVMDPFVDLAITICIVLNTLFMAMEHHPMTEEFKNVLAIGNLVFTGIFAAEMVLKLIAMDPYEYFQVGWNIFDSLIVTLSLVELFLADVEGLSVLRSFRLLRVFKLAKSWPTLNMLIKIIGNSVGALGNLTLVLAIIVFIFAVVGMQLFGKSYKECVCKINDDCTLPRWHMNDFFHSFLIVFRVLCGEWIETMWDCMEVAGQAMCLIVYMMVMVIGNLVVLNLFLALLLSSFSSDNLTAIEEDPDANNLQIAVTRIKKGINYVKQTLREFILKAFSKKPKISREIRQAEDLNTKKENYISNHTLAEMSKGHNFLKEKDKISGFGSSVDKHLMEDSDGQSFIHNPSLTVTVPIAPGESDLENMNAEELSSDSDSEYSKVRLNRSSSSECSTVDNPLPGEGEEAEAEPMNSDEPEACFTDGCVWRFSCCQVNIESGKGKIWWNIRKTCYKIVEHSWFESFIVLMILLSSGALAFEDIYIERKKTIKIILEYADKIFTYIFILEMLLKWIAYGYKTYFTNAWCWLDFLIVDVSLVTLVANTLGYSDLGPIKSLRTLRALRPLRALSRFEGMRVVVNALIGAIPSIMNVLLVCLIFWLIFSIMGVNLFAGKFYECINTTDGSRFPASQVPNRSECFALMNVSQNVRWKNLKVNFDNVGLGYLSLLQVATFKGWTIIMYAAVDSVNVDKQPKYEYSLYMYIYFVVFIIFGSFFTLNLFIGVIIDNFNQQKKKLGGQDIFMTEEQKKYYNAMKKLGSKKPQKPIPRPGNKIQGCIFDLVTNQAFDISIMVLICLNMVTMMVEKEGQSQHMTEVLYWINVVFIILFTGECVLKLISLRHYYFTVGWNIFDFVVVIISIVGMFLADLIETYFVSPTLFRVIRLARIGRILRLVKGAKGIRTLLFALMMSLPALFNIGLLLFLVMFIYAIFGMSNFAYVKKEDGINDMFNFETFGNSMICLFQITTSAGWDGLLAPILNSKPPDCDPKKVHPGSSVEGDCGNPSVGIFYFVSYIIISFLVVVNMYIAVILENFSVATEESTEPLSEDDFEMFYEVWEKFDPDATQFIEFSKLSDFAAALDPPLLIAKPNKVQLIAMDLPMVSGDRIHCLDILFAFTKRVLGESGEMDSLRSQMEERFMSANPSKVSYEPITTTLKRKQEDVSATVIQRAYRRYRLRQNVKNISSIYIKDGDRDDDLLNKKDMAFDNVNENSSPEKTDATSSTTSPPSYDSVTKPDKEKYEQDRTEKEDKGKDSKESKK

[26] = test system: Canis familiaris; experiment: Cardiotoxicity in anesthetized dog assessed as effect on mean arterial pressure at 3 mg/kg, iv; assay type: toxicity, organism-based, Canis lupus familiaris, Artery; parameters: dose 3 mg/kg, route intravenous; conditions: in vivo
[27] = test system: Mus musculus; experiment: Neurotoxicity in conscious mouse assessed as effect on motor activity at 100 mg/kg after 24 hrs; assay type: toxicity, organism-based; parameters: dose 100 mg/kg; conditions: in vivo
[28] = AUC in rat at 3 mg/kg, po; assay type: ADME, organism-based; parameters: dose 3 mg/kg, route oral; conditions: plasma
[29] = test system: Canis familiaris; experiment: Cardiotoxicity in anesthetized dog assessed as effect on heart rate at 3 mg/kg, iv; assay type: toxicity, organism-based, Canis lupus familiaris; parameters: dose 3 mg/kg, route intravenous; conditions: in vivo
[30] = test system: Canis familiaris; experiment: Cardiotoxicity in anesthetized dog assessed as effect on mean arterial pressure at 10 mg/kg, iv; assay type: toxicity, organism-based, Canis lupus familiaris, Artery; parameters: dose 10 mg/kg, route intravenous; conditions: in vivo
[31] = Metabolic stability in rat liver microsomes assessed as compound remaining after 60 mins in presence of 10 uM substrate; assay type: ADME, Microsome; conditions: read-out: Stability
[32] = target: Sodium channel protein type 10 subunit alpha (Homo sapiens, UniProt Q9Y5Y9); experiment: Inhibition of human Nav1.8 by VIPR assay
Sodium channel protein type 10 subunit alpha, sequence (Q9Y5Y9 whole entry): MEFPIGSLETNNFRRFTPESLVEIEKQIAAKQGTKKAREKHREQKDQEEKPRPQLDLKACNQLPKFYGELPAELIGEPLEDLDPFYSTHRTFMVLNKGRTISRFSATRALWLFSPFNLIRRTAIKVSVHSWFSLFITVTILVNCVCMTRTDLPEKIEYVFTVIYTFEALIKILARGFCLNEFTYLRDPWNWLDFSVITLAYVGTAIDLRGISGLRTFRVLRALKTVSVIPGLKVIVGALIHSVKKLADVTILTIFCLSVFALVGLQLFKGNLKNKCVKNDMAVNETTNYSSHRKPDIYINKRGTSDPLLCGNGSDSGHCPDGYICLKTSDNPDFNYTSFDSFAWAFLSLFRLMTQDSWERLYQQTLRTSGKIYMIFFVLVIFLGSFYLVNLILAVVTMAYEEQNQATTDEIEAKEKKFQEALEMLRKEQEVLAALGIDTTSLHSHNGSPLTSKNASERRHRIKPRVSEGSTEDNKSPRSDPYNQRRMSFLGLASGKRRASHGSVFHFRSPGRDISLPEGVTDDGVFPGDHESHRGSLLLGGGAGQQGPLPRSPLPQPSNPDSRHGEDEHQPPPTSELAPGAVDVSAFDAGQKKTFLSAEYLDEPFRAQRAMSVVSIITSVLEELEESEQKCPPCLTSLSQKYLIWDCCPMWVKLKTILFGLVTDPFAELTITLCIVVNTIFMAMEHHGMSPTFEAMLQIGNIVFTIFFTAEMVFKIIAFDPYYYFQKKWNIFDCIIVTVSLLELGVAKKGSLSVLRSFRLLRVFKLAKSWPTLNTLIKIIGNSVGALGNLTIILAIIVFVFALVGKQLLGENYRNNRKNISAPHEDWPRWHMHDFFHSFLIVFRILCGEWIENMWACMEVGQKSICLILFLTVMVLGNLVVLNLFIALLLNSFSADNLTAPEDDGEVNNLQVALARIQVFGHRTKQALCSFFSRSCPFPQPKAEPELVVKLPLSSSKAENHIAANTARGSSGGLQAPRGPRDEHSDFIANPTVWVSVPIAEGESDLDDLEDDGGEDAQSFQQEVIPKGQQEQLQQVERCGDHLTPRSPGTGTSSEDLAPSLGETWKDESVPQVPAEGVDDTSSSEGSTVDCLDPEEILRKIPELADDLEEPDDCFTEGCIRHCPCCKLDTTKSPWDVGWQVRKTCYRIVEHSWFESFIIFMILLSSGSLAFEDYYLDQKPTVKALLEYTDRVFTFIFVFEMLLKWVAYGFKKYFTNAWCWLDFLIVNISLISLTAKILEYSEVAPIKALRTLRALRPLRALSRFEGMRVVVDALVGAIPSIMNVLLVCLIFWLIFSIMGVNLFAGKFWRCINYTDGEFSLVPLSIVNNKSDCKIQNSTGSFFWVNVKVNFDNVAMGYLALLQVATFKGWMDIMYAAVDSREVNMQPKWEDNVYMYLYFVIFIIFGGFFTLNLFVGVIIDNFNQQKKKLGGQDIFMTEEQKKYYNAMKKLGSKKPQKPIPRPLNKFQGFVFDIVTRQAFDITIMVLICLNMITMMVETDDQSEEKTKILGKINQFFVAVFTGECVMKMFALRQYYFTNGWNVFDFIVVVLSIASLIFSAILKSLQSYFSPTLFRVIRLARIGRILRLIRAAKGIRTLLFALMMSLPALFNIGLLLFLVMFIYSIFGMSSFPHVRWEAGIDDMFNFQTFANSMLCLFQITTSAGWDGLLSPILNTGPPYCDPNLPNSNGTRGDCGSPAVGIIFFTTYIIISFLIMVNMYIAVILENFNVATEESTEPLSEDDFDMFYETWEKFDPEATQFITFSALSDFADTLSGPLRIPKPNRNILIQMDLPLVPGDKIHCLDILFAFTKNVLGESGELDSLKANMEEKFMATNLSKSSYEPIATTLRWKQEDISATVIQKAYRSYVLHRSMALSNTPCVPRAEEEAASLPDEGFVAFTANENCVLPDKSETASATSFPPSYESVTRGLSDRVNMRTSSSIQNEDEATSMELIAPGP

[33] = test system: Rattus norvegicus; experiment: Antiallodynic activity in rat spinal nerve ligation model of neuropathic pain assessed as reversal of allodynia at 30 mg/kg, po after 4 hrs; assay type: functional
[34] = test system: Rattus norvegicus; experiment: Neurotoxicity in rat assessed as delay in motor coordination at 100 mg/kg, po by rotarod test (reference value: 18%); assay type: toxicity, organism-based; parameters: dose 100 mg/kg, route oral; conditions: in vivo
[35] = test system: Canis familiaris; experiment: Clearance in dog plasma at 0.5 mg/kg, iv and 2 mg/kg, po; assay type: ADME, organism-based, Canis lupus familiaris; conditions: in vivo
[36] = test system: Plasma; experiment: Plasma concentration in dog at 3 mg/kg, iv; assay type: ADME, organism-based, Canis lupus familiaris; parameters: dose 3 mg/kg, route intravenous; conditions: in vivo
[37] = test system: Rattus norvegicus; experiment: Neurotoxicity in rat assessed as effect on motor coordination at 30 mg/kg, po by rotarod test (reference value: 18%); assay type: toxicity, organism-based; parameters: dose 30 mg/kg, route oral; conditions: in vivo
[38] = test system: Mus musculus; experiment: Neurotoxicity in conscious mouse assessed as effect on CNS function at 100 mg/kg after 2 hrs; assay type: toxicity, organism-based, Central nervous system; parameters: dose 100 mg/kg; conditions: in vivo
[39] = test system: Rattus norvegicus; experiment: Antiallodynic activity in rat […] model assessed as reversal of complete Freund's adjuvant-induced allodynia at 30 mg/kg, po after 4 hrs; assay type: functional
[40] = Cmax in rat at 1 mg/kg, iv and 3 mg/kg, po; assay type: ADME, organism-based; conditions: in vivo
[41] = target: Cav1.2 (L-type calcium channel subunit alpha-1C) (Homo sapiens, UniProt Q13936); experiment: Inhibition of DLZ binding to Cav1.2 at 10 uM; conditions: probe DLZ
[42] = Bioavailability in rat at 1 mg/kg, iv and 3 mg/kg, po; assay type: ADME, organism-based; conditions: in vivo
[43] = test system: Mus musculus; experiment: Neurotoxicity in conscious mouse assessed as effect on behavior at 100 mg/kg after 2 hrs; assay type: toxicity, organism-based; parameters: dose 100 mg/kg; conditions: in vivo
[44] = Cmax in dog at 60 mg/kg, po; assay type: ADME, organism-based, Canis lupus familiaris; parameters: dose 60 mg/kg, route oral; conditions: in vivo
[45] = Plasma concentration in rat 30 to 100 mg/kg, po after 3.5 hrs; assay type: ADME, organism-based; parameters: dose 30-100 mg/kg, route oral
[46] = test system: Canis familiaris; experiment: Cardiotoxicity in anesthetized dog assessed as effect on mean arterial pressure at 1 mg/kg, iv; assay type: toxicity, organism-based, Canis lupus familiaris, Artery; parameters: dose 1 mg/kg, route intravenous; conditions: in vivo
[47] = test system: Canis familiaris; experiment: Cardiotoxicity in anesthetized dog assessed as effect on heart rate at 10 mg/kg, iv; assay type: toxicity, organism-based, Canis lupus familiaris; parameters: dose 10 mg/kg, route intravenous; conditions: in vivo

## NC(=O)c1cc(C(N)=O)n(-c2cccc(-c3cc(C(F)(F)F)ccc3C(F)(F)F)c2)n1
[1]
  Activity: Non-toxic
[2]
  Activity: Non-toxic
[3]
  half-life: 12 h
[4]
  concentration: 7.3 µM
[5]
  Activity: 6%
[6]
  AUC: 650 µM·h
[7]
  Activity: Non-toxic
[8]
  Activity: Non-toxic
[9]
  Activity: Non-toxic
[10]
  inhibition at 30 µM: 15%
[11]
  Activity: Non-toxic
[12]
  inhibition in vivo at 3 mg/kg: 30%
[13]
  IC50: 1320 nM
[14]
  clearance: 5 mL/min/kg
[15]
  remaining at 1 h, 10 uM: > 99%
[16]
  inhibition in vivo at 10 mg/kg: 44%
[17]
  bioavailability: 33%
[18]
  inhibition in vivo at 30 mg/kg: 56%
[19]
  remaining at 1 h, 10 uM: > 99%
[20]
  Cmax: 2.92 µM
[21]
  Activity: Non-toxic
[22]
  IC50: > 100000 nM
[23]
  IC50: 20300 nM
[24]
  IC50: > 25000 nM
[25]
  IC50: 810 nM
[26]
  Activity: Non-toxic
[27]
  Activity: Non-toxic
[28]
  AUC: 5.6 µM·h
[29]
  Activity: Non-toxic
[30]
  Activity: Non-toxic
[31]
  remaining at 1 h, 10 uM: > 99%
[32]
  IC50: 2000 nM
[33]
  inhibition in vivo at 30 mg/kg: 59%
[34]
  Activity: -11%
[35]
  clearance: 0.5 mL/min/kg
[36]
  concentration: 16.2 µM
[37]
  Activity: -2%
[38]
  Activity: Non-toxic
[39]
  inhibition in vivo at 30 mg/kg: 53%
[40]
  Cmax: 2.64 µM
[41]
  inhibition at 10 µM: 0%
[42]
  bioavailability: 60%
[43]
  Activity: Non-toxic
[44]
  Cmax: 24.4 µM
[45]
  concentration at 3.5 h: 31.6 µM
[46]
  Activity: Non-toxic
[47]
  Activity: Non-toxic

Source: ChEMBL document CHEMBL1629455, “Discovery of a novel class of biphenyl pyrazole sodium channel blockers for treatment of neuropathic pain” (Bioorg Med Chem Lett, 2010)
